Data from US20110015208A1, “PHARMACEUTICAL COMPOSITIONS CONTAINING DOPAMINE RECEPTOR LIGANDS AND METHODS OF TREATMENT USING DOPAMINE RECEPTOR LIGANDS” (priority 2007, published 2011).

Tests used:
[1] = test system: basal locomotor activity of mice; assay: Open field, basal locomotor activity of mice (Example 4B); type: in vivo, mouse; conditions: test condition water; 400 mg/kg IP
Description: (§1) Cariprazine hydrochloride and escitalopram oxalate were evaluated for anti-manic effects using the amphetamine/chlordiazepoxide (AMPH/CDP) hyperactivity test.
(§2) Male C57B1/6J mice (8 weeks old) from Jackson Laboratories (Bar Harbor, Me.) were used in this study. Upon receipt, mice were assigned unique identification numbers (tail marked) and were group housed (4 mice/cage) in OPTI mouse ventilated cages. All animals remained housed in groups of four during the remainder of the study. During the period of acclimation, mice were examined on a regular basis, handled, and weighed to assure adequate health and suitability. Mice were maintained on a 12/12 light/dark cycle. The room temperature was maintained between 20 and 23° C. with a relative humidity maintained between 30% and 70%. Chow and water were provided ad libitum for the duration of the study. In each test, animals were randomly assigned across treatment groups.
(§3) Distance traveled is measured by consecutive beam breaks.
(§4) Data was analyzed by analysis of variance (ANOVA) followed by Fisher PLSD post-hoc analysis when appropriate. An effect was considered significant if p<0.05. Outliers that fell above and below two standard deviations from the mean were removed from the final analysis.

[2] = test system: basal locomotor activity of mice; assay: Open field, basal locomotor activity of mice (Example 4A); type: in vivo, mouse; conditions: test condition water; 400 mg/kg IP, 30 min pretreatment
Description: as §1
as §2, with “C57B1/6J mice from Jackson” for “C57B1/6J mice (8 weeks old) from Jackson”, “this study. Mice were received at 6-weeks of age. Upon receipt,” for “this study. Upon receipt,”, “group housed with 4 mice/cage. All animals” for “group housed (4 mice/cage) in OPTI mouse ventilated cages. All animals”, “the study. All mice were acclimated to the colony room for at least two weeks prior to testing and were subsequently tested at an average age of 8 weeks of age. During the” for “the study. During the”
as §3, §4

[3] = test system: d-amphetamine/chlordiazepoxide mixture (AMPH/CDP)-induced hyperactivity in mice; assay: d-Amphetamine/chlordiazepoxide (AMPH/CDP) hyperactivity test (Example 4A); type: in vivo, mouse; conditions: test condition AMPH/CDP; 400 mg/kg IP, 30 min pretreatment
Description: as §1
as §2, with “C57B1/6J mice from Jackson” for “C57B1/6J mice (8 weeks old) from Jackson”, “this study. Mice were received at 6-weeks of age. Upon receipt,” for “this study. Upon receipt,”, “group housed with 4 mice/cage. All animals” for “group housed (4 mice/cage) in OPTI mouse ventilated cages. All animals”, “the study. All mice were acclimated to the colony room for at least two weeks prior to testing and were subsequently tested at an average age of 8 weeks of age. During the” for “the study. During the”
(§5) d-Amphetamine sulfate (Sigma, 4.0 mg/kg) and chlordiazepoxide (CDP; Sigma, 2.5 mg/kg) were dissolved in sterile water and were administered intraperitoneally at a dose volume of 10 ml/kg.
as §3, §4

[4] = test system: d-amphetamine/chlordiazepoxide mixture (AMPH/CDP)-induced hyperactivity in mice; assay: d-Amphetamine/chlordiazepoxide (AMPH/CDP) hyperactivity test (Example 4B); type: in vivo, mouse; conditions: test condition AMPH/CDP; 400 mg/kg IP
Description: as §1, §2, §5, §3, §4

[5] = test system: chronic mild stress (CMS) model of depression; assay: Chronic mild stress (CMS) model of depression, sucrose consumption (Example 3); type: in vivo, rat; conditions: imipramine, reference treatment in parallel studies
Source text: Similar to the study described in Example 2, additional studies were undertaken to further evaluate the antidepressant effect of cariprazine hydrochloride, administered alone, or in combination with escitalopram oxalate, in a chronic mild stress model of depression
In the chronic mild stress (CMS) model, rats subjected to a variety of mild stressors for a prolonged period of time show a substantial decrease in their responsiveness to rewarding stimuli. This deficit is usually monitored by a decrease in the consumption of a 1% sucrose solution, but can also be seen in other tests, such as place preference conditioning or intracranial self-stimulation. The subsensitivity to reward appears to reflect anhedonia (inability to experience pleasure), which is a core symptom of major depressive disorders. Clinically approved antidepressants have shown activity in this animal model by reversing the effects of CMS on sucrose consumption. See, e.g., Sanchez C, Gruca P, Papp M, Behavioural Pharmacology 14, 465-470, 2003.
Male Wistar rats (Charles River, Germany) were brought into the laboratory two months before the start of the experiment. Except as described below, the animals were singly housed with food and water freely available, and were maintained on a 12-h light/dark and in a constant temperature (22±2° C.) and humidity (50±5%) conditions.
The animals were first trained to consume a 1% sucrose solution; training consisted of nine 1 h baseline tests in which sucrose was presented, in the home cage, following 14 h food and water deprivation. The sucrose intake was measured by weighing pre-weighed bottles containing the sucrose solution, at the end of the test. Subsequently, sucrose consumption was monitored, under similar conditions, at weekly intervals throughout the whole experiment.
On the basis of their sucrose intakes in the final baseline test, the animals were divided into two matched groups. One group of animals was subjected to the chronic mild stress procedure for a period of 7 consecutive weeks. Each week of stress regime consisted of: two periods of food or water deprivation, two periods of 45 degree cage tilt, two periods of intermittent illumination (lights on and off every 2 h), two periods of soiled cage (250 ml water in sawdust bedding), one period of paired housing, two periods of low intensity stroboscopic illumination (150 flashes/min), and three periods of no stress. All stressors were 10-14 h of duration and were applied individually and continuously, day and night. Control animals were housed in separate rooms and had no contact with the stressed animals. They were deprived of food and water for 14 h preceding each sucrose test, but otherwise food and water were freely available in the home cage.

[6] = test system: chronic mild stress (CMS) model of depression; assay: Chronic mild stress (CMS) model of depression, sucrose consumption (Example 2); type: in vivo, rat; conditions: imipramine 10 mg/kg IP once daily, stressed animals
Source text: This study evaluated the antidepressant effect of cariprazine hydrochloride in the chronic mild stress (CMS) model of depression. A comparison to the efficacy of the tricyciclic antidepressant compound imipramine was also made.
Male Wistar rats were adapted to laboratory and housing conditions for 3 weeks, followed by adoption to consumption of 1% sucrose solution for an additional 5 weeks before being separated into control and to-be-stressed groups.
Chronic stress was applied to the allocated group for seven weeks. The following stressors were used: food and/or water deprivation, cage tilting (45 degrees backwards), intermittent illumination, paired housing, soiled cage (250 mL of tap water in sawdust bedding), stroboscopic illumination (150 flashed per minute), no stress. All stressors were 10-14 hours in duration and were applied individually and continuously, once or twice weekly, during the day and at night.
Consumption of sucrose solution was measured in 1-hour tests conducted on all animals (i.e., controls and stressed) once weekly throughout the entire experiment. The tests were preceded by 14 hours of food and water deprivation. On the basis of their sucrose intakes following the initial 2 weeks of stress, both stressed and control animals received once-daily chronic (5 weeks) IP injections of vehicle (1% methyl cellulose, 1 mL/kg), cariprazine hydrochloride (0.0625, 0.25 or 1.0 mg/kg), or imipramine (10 mg/kg) as reference treatment. […] These animals were considered weak responders/non-responders and were eliminated from the analysis.

Structure (SMILES) | Total Distance Traveled [mean ± SEM] [1] [cm/60 min] | Total Distance Traveled [mean ± SEM] [2] [cm/60 min] | Total Distance Traveled [mean ± SEM] [3] [cm/60 min] | Total Distance Traveled [mean ± SEM] [4] [cm/60 min] | time until effect on sucrose consumption reached significance [5] | CMS-induced decrease in consumption of 1% sucrose solution ([6]; 5 weeks) | onset of action: effect on sucrose drinking evident at [6] [Week]
CCCC(CCC)C(=O)O [Valproate] | 3365 ± 612 | 4471 ± 298 | 17496 ± 1788 | 18478 ± 2961 |  |  | 
CN(C)CCCN1c2ccccc2CCc2ccccc21 [imipramine, reference compound] |  |  |  |  | after three weeks of administration | fully reversed | 3
